Data published in patent publication US12486253B2, “Therapeutics for the degradation of mutant BRAF” (C4 THERAPEUTICS, INC., priority 2021, dated 2025).

Experiments:
[1] = test system: ERK phosphorylation; test: Western blot of ERK phosphorylation in A375 cells expressing NRAS^Q61K; type: cell-based; conditions: 24 hours
[2] = biological target: T1, BRAF class III mutant G466V (Homo sapiens, UniProt P15056, G466V); test: Western blot of engineered HEK-293T cells expressing class III mutant G466V; type: cell-based; conditions: lentivirus expression
T1 construct: host or cells: HEK-293T, lentiviral expression
T1 sequence (P15056 whole entry G466V): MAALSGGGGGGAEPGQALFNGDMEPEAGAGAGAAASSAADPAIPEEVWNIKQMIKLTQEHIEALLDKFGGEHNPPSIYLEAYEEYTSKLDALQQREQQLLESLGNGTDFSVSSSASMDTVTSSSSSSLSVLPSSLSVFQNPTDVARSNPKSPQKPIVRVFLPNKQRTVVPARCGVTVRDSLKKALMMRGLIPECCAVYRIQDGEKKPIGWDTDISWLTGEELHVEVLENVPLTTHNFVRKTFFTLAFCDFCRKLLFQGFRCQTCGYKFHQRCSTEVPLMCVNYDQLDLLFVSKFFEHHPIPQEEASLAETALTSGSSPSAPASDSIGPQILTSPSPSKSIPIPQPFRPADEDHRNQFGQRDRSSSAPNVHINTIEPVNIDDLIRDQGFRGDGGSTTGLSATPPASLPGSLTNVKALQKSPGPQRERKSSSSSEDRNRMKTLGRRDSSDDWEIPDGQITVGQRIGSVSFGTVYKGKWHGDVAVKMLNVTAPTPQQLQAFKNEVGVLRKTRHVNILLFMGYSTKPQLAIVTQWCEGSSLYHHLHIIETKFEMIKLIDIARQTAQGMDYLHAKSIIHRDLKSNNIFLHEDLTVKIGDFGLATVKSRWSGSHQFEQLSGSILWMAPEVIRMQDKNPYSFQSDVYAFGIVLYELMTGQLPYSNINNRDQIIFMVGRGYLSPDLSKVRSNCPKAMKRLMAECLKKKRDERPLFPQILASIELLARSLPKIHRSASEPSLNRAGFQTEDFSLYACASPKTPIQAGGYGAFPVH

[3] = biological target: BRAF V600E, test compound and CRBN ternary complex (Homo sapiens, UniProt P15056+Q96SW2, V600E); test: AlphaLISA ternary complex formation assay; type: binding; conditions: GST-BRAF V600E 16 nM, His-CRBN 64 nM
Sequence of BRAF V600E, test compound and CRBN ternary complex (P15056 whole entry V600E): as the sequence (P15056 whole entry G466V) above, with V466G, V600E counted along it
Sequence of BRAF V600E, test compound and CRBN ternary complex (Q96SW2 whole entry): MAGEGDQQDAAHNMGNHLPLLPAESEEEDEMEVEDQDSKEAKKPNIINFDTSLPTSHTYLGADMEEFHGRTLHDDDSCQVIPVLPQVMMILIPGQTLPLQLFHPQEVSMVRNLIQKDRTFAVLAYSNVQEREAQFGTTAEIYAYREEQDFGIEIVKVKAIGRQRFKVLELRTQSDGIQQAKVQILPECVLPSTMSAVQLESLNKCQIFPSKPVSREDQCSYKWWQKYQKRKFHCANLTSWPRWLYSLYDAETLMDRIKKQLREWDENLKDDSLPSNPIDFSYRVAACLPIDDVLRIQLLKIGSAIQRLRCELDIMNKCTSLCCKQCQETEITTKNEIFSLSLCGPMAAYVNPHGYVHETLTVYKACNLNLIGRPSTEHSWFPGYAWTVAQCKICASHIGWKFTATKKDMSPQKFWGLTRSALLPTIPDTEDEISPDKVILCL
Experimental: Formation of the ternary complex between BRAF V600E, test compound and CRBN was quantified using AlphaLISA® assay. GST-tagged BRAF V600E and His-tagged CRBN were labeled with a donor/acceptor AlphaLISA® pair, and complex formation was monitored via a change in the Alpha-signal. Signal from the control wells was used as a normalization control.
Characterization of the ternary complex formation between GST-BRAF V600E, Compound 157 and his-CRBN was carried out using an AlphaLISA® assay. Compounds were dispensed from serially diluted DMSO stock in low dead volume plates into gray 384-well AlphaPlates using acoustic technology to 1% of total reaction volume. Compounds were arranged vertically in rows A through P. Concentration series were horizontal: columns 1-11, and then duplicates in columns 12-22.
Excitation of the donor beads results in generation of singlet oxygen molecules. […]
A 10 μL mixture containing 16 nM of BRAF V600E and 64 nM of CRBN in 50 mM HEPES (pH 7.4), 200 mM NaCl, 1 mM TCEP, 0.05% Pluronic Acid, 0.1% BSA was added to the wells containing test compounds (columns 1-22) and the negative control wells (column 23). […] Plates were then read on an Envision plate reader with an appropriate AlphaLISA® filter set.

[4] = test system: LOXL4; test: Global proteomics profiling, A375 cells; type: cell-based, human; conditions: 300 nM, 24 hours
Experimental: (§1) Each cell line was treated in duplicate with either DMSO or Compound 157 (final concentration 300 nM) for 24 hours in an incubator at 37° C. with 5% CO2. After the 24-hour incubation, cells were harvested, washed twice with PBS, and snap frozen in liquid nitrogen. Samples were re-suspended in lysis buffer [8 M urea, 50 mM HEPES (pH 8.5), 50 mM NaCl, 1× protease inhibitor cocktail] and lysed by sonication at 4° C. with 85% amplitude in a pulse setting with 30 seconds on and 30 seconds off for a total sonication time of 5 minutes. Lysates were centrifuged at maximum speed for 10 minutes at 4° C. and the supernatant collected, reduced for 1 hour at room temperature with 5 mM TCEP, and the cysteine residues were then alkylated with 15 mM iodoacetamide (room temperature, in dark, 30 minutes). Protein content was extracted by methanol-chloroform precipitation and subsequent ice-cold acetone washes. Protein pellets were resuspended in 8 M urea, 50 mM HEPES (pH 8.5) buffer and protein concentrations were measured by BCA assay. […]
(§2) For peptide tandem mass tag (TMT) labeling, 100 μg of peptides per sample was prepared at […] concentration in 200 mM HEPES (pH 8.5), 30% acetonitrile (ACN) and each the specific TMT reagent. […] TMT reporter ion intensities were quantified by extracting the signal-to-noise ratio for each. […]

[5] = biological target: BRAF V600E (Homo sapiens, UniProt P15056, V600E); test: Global proteomics profiling, A375 cells; type: cell-based; parameters: endogenous in cells; host or cells: A375; conditions: 300 nM, 24 hours, compared to 300 nM dabrafenib treatment
Sequence of BRAF V600E (P15056 whole entry V600E): as the sequence (P15056 whole entry G466V) above, with V466G, V600E counted along it
Experimental: as §1, §2

CCN(C)S(=O)(=O)Nc1ccc(F)c(Oc2ccc3ncn([C@H]4COC5(CCN(C(=O)CC6(O)CCN(c7cc8c(cc7F)c(N7CCC(=O)NC7=O)nn8C)CC6)CC5)C4)c(=O)c3c2)c1C#N [Compound 157, (3R)-3-[6-[2-cyano-3-[[ethyl(methyl)sulfamoyl]amino]-6-fluorophenoxy]-4-oxoquinazolin-3-yl]-8-[2-[1-[3-(2,4-dioxo-1,3-diazinan-1-yl)-5-fluoro-1-methylindazol-6-yl]-4-hydroxypiperidin-4-yl]acetyl]-1-oxa-8-azaspiro[4.5]decane]
ERK phosphorylation, in combination with trametinib ([1]; with 1 nM trametinib): completely suppressed | ERK phosphorylation, alone ([1]; without trametinib): can suppress MAPK signaling | degradation of class III mutant G466V [2]: capable of degrading | Ternary complex formation (concentration dependence) [3]: characteristic bell-shaped curve | LOXL4 protein level change [4]: decreased | BRAF^V600E protein remaining [5]: 27%
